Measurements reported in patent US20250034135A1, “ANTI-APOPTOTIC PROTEIN BCL-2 INHIBITOR, PHARMACEUTICAL COMPOSITION AND USES THEREOF” (HANGZHOU HEALZEN THERAPEUTICS CO., LTD., priority 2021, published 2025).

target: BCL2 (Homo sapiens (Human), UniProt P10415); assay: Molecular level activity test of anti-apoptotic protein BCL2 (HTRF, binding to Bim peptide); conditions: HTRF, binding of BCL2 to Bim peptide; read-out: BCL2 nM (inhibitory activity, IC50)
Summary of the method: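 Competition binding format: recombinant His-BCL2 and a biotin-Bim peptide are incubated with compound for 1 h, followed by 4 h at room temperature with HTRF detection antibodies.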

Chain of BCL2 (P10415 whole entry): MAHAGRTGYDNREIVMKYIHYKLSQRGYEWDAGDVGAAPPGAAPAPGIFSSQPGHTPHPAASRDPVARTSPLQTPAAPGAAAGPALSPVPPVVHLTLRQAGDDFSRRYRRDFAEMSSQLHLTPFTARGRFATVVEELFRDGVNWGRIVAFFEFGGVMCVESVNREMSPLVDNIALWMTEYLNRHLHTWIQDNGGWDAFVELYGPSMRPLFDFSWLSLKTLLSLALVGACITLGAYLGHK

IC50, < 10 nM:
COc1ccc(CN2CCN(C3CC4(CCN(c5cc(Oc6cnc7[nH]ccc7c6)c(C(=O)NS(=O)(=O)c6cc([N+](=O)[O-])c(NC[C@H]7COCCO7)c7ocnc67)cc5F)CC4)C3)[C@H](c3ccccc3C(C)C)C2)cc1 [compound 124]
CC(C)c1ccccc1[C@@H]1CN(Cc2c(F)cccc2F)CCN1C1CC2(CCN(c3ccc(C(=O)NS(=O)(=O)c4cc([N+](=O)[O-])c(NCC5(F)CCOCC5)c5c4OCO5)c(Oc4cnc5[nH]ccc5c4)c3)CC2)C1 [compound 170, (R)-2-((1H-pyrrolo[2,3-b]pyrid-5-yl)oxy)-4-(2-(4-(2,6-difluorobenzyl)-2-(2-isopropylphenyl)piperazin-1-yl)-7-azaspiro[3.5]non-7-yl)-N-((7-(((4-fluorotetrahydro-2H-pyran-4-yl)methyl)amino)-6-nitrobenzo[d][1,3]dioxocyclopent-4-yl)sulfonyl)benzamide]
COc1ccc(CN2CCN(C3CC4(CCN(c5cc(Oc6cnc7[nH]ccc7c6)c(C(=O)NS(=O)(=O)c6cc([N+](=O)[O-])c(NCC7(F)CCOCC7)c7c6OCCO7)cc5F)CC4)C3)[C@H](c3ccccc3C(C)C)C2)cc1 [compound 110, (R)-2-((1H-pyrrolo[2,3-b]pyrid-5-yl)oxy)-5-fluoro-N-((8-(((4-fluorotetrahydro-2H-pyran-4-yl)methyl)amino)-7-nitro-2,3-dihydrobenzo[b][1,4]dioxane-5yl)sulfonyl)-4-(2-(2-(2-isopropylphenyl)-4-(4-methoxybenzyl)piperazin-1-yl)-7-azaspiro[3.5]non-7-yl)benzamide]
CC(C)c1ccccc1[C@@H]1CCCN1C1CC2(CCN(c3ccc(C(=O)NS(=O)(=O)c4cc([N+](=O)[O-])c(NCC5(F)CCN(C(C)C)CC5)c5[nH]ccc45)c(Oc4cnc5[nH]ccc5c4)c3)CC2)C1 [compound 010, (S)-2-((1H-pyrrolo[2,3-b]pyrid-5-yl)oxy)-N-((7-(((4-fluoro-1-isopropylpiperid-4-yl)methyl)amino)-6-nitro-1H-indol-4-yl)sulfonyl)-4-(2-(2-(2-isopropylphenyl)pyrrolidin-1-yl)-7-azaspiro[3.5]non-7-yl)benzamide]
COc1ccc(CN2CCN(C3CC4(CCN(c5cc(Oc6cnc7[nH]ccc7c6)c(C(=O)NS(=O)(=O)c6cc([N+](=O)[O-])c(NCC7(F)CCOCC7)c7occc67)cc5F)CC4)C3)[C@H](c3ccccc3C(C)C)C2)cc1 [compound 109, (R)-2-((1H-pyrrolo[2,3-b]pyrid-5-yl)oxy)-5-fluoro-N-((7-(((4-fluorotetrahydro-2H-pyran-4-yl)methyl)amino)-6-nitrobenzofuran-4-yl)sulfonyl)-4-(2-(2-(2-isopropylphenyl)-4-(4-methoxybenzyl)piperazin-1-yl)-7-azaspiro[3.5]non-7-yl)benzamide]
CC(C)c1ccccc1[C@@H]1CCCN1C1CC2(CCN(c3cc(Oc4cnc5[nH]ccc5c4)c(C(=O)NS(=O)(=O)c4cc([N+](=O)[O-])c(NC[C@H]5CC[C@](C)(O)CC5)c5[nH]cnc45)cc3F)CC2)C1 [compound 014, 2-((1H-pyrrolo[2,3-b]pyrid-5-yl)oxy)-5-fluoro-N-((7-((((1r,4r)-4-hydroxy-4-methylcyclohexyl)methyl)amino)-6-nitro-1H-benzo[d]imidazol-4-yl)sulfonyl)-4-(2-((S)-2-(2-isopropylphenyl)pyrrolidin-1-yl)-7-azaspiro[3.5]non-7-yl)benzamide]
COc1ccc(CN2CCN(C3CC4(C3)CN(c3ccc(C(=O)NS(=O)(=O)c5cc([N+](=O)[O-])c(NCC6(F)CCN(C(C)C)CC6)c6[nH]cnc56)c(Oc5cnc6[nH]ccc6c5)c3)C4)C(c3ccccc3C(C)C)C2)cc1 (stereo not drawn) [compound 046, 2-((1H-pyrrolo[2,3-b]pyrid-5-yl)oxy)-N-((7-(((4-fluoro-1-isopropylpiperid-4-yl)methyl)amino)-6-nitro-1H-benzo[d]imidazol-4-yl)sulfonyl)-4-(6-(2-(2-isopropylphenyl)-4-(4-methoxybenzyl)piperazin-1-yl)-2-azaspiro[3.3]hept-2-yl)benzamide]
COc1ccc(CN2CCN(C3CC4(CCN(c5ccc(C(=O)NS(=O)(=O)c6cc([N+](=O)[O-])c(NCC7(F)CCOCC7)c7[nH]cnc67)c(Oc6cnc7[nH]ccc7c6)c5)CC4)C3)C(c3ccccc3C(C)C)C2)cc1 (stereo not drawn) [compound 047, 2-((1H-pyrrolo[2,3-b]pyrid-5-yl)oxy)-N-((7-(((4-fluorotetrahydro-2H-pyran-4-yl)methyl)amino)-6-nitro-1H-benzo[d]imidazol-4-yl)sulfonyl)-4-(2-(2-(2-isopropylphenyl)-4-(4-methoxybenzyl)piperazin-1-yl)-7-azaspiro[3.5]non-7-yl)benzamide]
CC(C)c1ccccc1[C@@H]1CCCN1C1CC2(CCN(c3ccc(C(=O)NS(=O)(=O)c4cc([N+](=O)[O-])c(NC[C@H]5CC[C@](C)(O)CC5)c5[nH]cnc45)c(N4CCOc5nc6[nH]ccc6cc54)c3)CC2)C1 [compound 079, 2-(2,3-dihydropyrrolo[3′,2′:5,6]pyridino[2,3-b][1,4]oxazin-1 (6H)-yl)-N-((7-((((1r,4r)-4-hydroxy-4-methylcyclohexyl)methyl)amino)-6-nitro-1H-benzo[d]imidazol-4-yl)sulfonyl)-4-(2-((S)-2-(2-isopropylphenyl)pyrrolidin-1-yl)-7-azaspiro[3.5]non-7-yl)benzamide]
COc1ccc(CN2CCN(C3CC4(CCN(c5ccc(C(=O)NS(=O)(=O)c6cc([N+](=O)[O-])c(NCC7(F)CCOCC7)c7c6OCO7)c(Oc6cnc7[nH]ccc7c6)c5)CC4)C3)[C@H](c3ccccc3C(C)C)C2)cc1 [compound 147, (R)-2-((1H-pyrrolo[2,3-b]pyrid-5-yl)oxy)-N-((7-(((4-fluorotetrahydro-2H-pyran-4-yl)methyl)amino)-6-nitrobenzo[d][1,3]dioxocyclopent-4-yl)sulfonyl)-4-(2-(2-(2-isopropylphenyl)-4-(4-methoxybenzyl)piperazin-1-yl)-7-azaspiro[3.5]non-7-yl)benzamide]
COc1ccc(CN2CCN(C3CC4(CCN(c5ccc(C(=O)NS(=O)(=O)c6cc([N+](=O)[O-])c(NCC7(F)CCOCC7)c7c6OC(F)(F)O7)c(Oc6cnc7[nH]ccc7c6)c5)CC4)C3)[C@H](c3ccccc3C(C)C)C2)cc1 [compound 164, (R)-2-((1H-pyrrolo[2,3-b]pyrid-5-yl)oxy)-N-((2,2-difluoro-7-(((4-fluorotetrahydro-2H-pyran-4-yl)methyl)amino)-6-nitrobenzo[d][1,3]dioxocyclopent-4-yl)sulfonyl)-4-(2-(2-(2-isopropylphenyl)-4-(4-methoxybenzyl)piperazin-1-yl)-7-azaspiro[3.5]non-7-yl)benzamide]
CC(C)c1ccccc1[C@@H]1CN(Cc2cccnc2)CCN1C1CC2(CCN(c3cc(Oc4cnc5[nH]ccc5c4)c(C(=O)NS(=O)(=O)c4ccc(NC[C@H]5CC[C@](C)(O)CC5)c([N+](=O)[O-])c4)cc3F)CC2)C1 [compound 232, 2-((1H-pyrrolo[2,3-b]pyrid-5-yl)oxy)-5-fluoro-N-((4-((((1r, 4r)-4-hydroxy-4-methylcyclohexyl)methyl)amino)-3-nitrophenyl)sulfonyl)-4-(2-((R)-2-(2-isopropylphenyl)-4-(pyrid-3-ylmethyl)piperazin-1-yl)-7-azaspiro[3.5]non-7-yl)benzamide]
